Series [1] in a line: DPPH radical quenching / free radical scavenging test. The format is biochemical. To be noted: Conc. of antioxidant 20 μM. As for the experimental part: The radical quenching efficiency of the extract was also tested by widely reported standard methods like di-phenyl picryl hydrazyl (DPPH) radical according to the methods of W. Brand Williams, M. E. Cuvelier and C. Berset, Lebesm.-Wiss.

Series [2] can be described thus: DSC oxidative stability of soybean oil, isothermal 150° C. under oxygen flow. To be noted: soybean oil stored one week at 60° C.; antioxidant 200 mg per Kg of oil. The text has this: DSC experiments: Differential Scanning Calorimeter. The Mettler Toledo instrument used for carrying out the studies, is configured to follow oxidative stability of vegetable oils at a desired higher temperature under oxygen flow. […] With the help of an inbuilt program of the instrument, the induction period in ‘time-units’ could be calculated. This is indicated in the diagram as ‘onset’ time. Longer ‘onset’ time indicates better protection. […] DSC profiles of purified sesame extracts have been included here. In FIG. 6, the oxidative stability of soybean oil stored at 60° C. for 7 days has been depicted. (The storage study continued for one month. The extent of protection as measured in DSC was studied here.). Each experiment such as Control alone, (soybean oil+BHT), (oil+TBHQ), (oil+Sesame extract at 10 ppm, 50 ppm, 200 ppm) etc were carried out separately. For comparison sake, the different profiles have been overlaid in the same figure. In FIG. 6, the concentrations of BHT and TBHQ are 200 mg per Kg. of oil. For comparison, the profile of oil containing sesame extract at 50 ppm is also depicted in the overlaid diagram. […]

A short description of series [3]: DSC oxidative stability of safflower oil, isothermal 150° C. under oxygen flow. Particulars: fresh safflower oil; antioxidant 200 mg per Kg of oil. The text has this: DSC experiments: Differential Scanning Calorimeter. The Mettler Toledo instrument used for carrying out the studies, is configured to follow oxidative stability of vegetable oils at a desired higher temperature under oxygen flow. […] With the help of an inbuilt program of the instrument, the induction period in ‘time-units’ could be calculated. This is indicated in the diagram as ‘onset’ time. Longer ‘onset’ time indicates better protection. […] DSC profiles of purified sesame extracts have been included here. As explained elsewhere, the Figure represents overlaid DSC profiles of safflower oil containing synthetic and sesame antioxidants at few select concentrations. The onset time has been recorded in the printout of the profile. The oxidative stability of vegetable oils containing synthetic antioxidants (BHT and TBHQ at 50-200 ppm) and sesame extract at different levels 3 to 1000 ppm were also tested in the Differential Scanning Calorimeter (Mettler Toledo, model 821) under flow of oxygen (40 ml/min.). The heating regime followed was isothermal at 150° C. and from the curves obtained (FIGS. 6, 7), the ‘onset-time’ of oxidative changes under identical conditions could be found out by making use of an inbuilt program of the instrument, the induction period represented by the onset time, can be correlated with the onset of rancidity.

For a further series, the system named is rats. To be noted: Nobuyuki Ito 1982, cited via U.S. Pat. No. 5,043,100; cited from earlier work.

`O=C(OC[C@H]1O[C@@H](OC(=O)c2cc(O)c(O)c(OC(=O)c3cc(O)c(O)c(O)c3)c2)[C@H](OC(=O)c2cc(O)c(O)c(OC(=O)c3cc(O)c(O)c(O)c3)c2)[C@@H](OC(=O)c2cc(O)c(O)c(OC(=O)c3cc(O)c(O)c(O)c3)c2)[C@@H]1OC(=O)c1cc(O)c(O)c(OC(=O)c2cc(O)c(O)c(O)c2)c1)c1cc(O)c(O)c(OC(=O)c2cc(O)c(O)c(O)c2)c1` [Tannic Acid]: in series [1], the “Free radical Scavenging Effect after 30 min.” value (“Free radical Scavenging Effect” below) came out at 98.88.
Take `Cc1cc(C(C)(C)C)c(O)c(C(C)(C)C)c1` [BHT, Butylated Hydroxy Toluene]: the “Free radical Scavenging Effect” value in series [1] worked out at 81.61. For the same molecule, the figures for the DSC onset time in series [2] and in series [3] were 7.30 min and 7.23 min, respectively.
As for Catechin, the “Free radical Scavenging Effect” value in series [1] turned out to be 98.51.
Turning to `COc1ccc(O)c(C(C)(C)C)c1` [BHA, Butylated Hydroxy Anisole], the carcinogenicity result with rats is on record as “carcinogenic in rats”.
For `CC(C)(C)c1cc(O)ccc1O` [TBHQ, tert-Butyl Hydro Quinone], the “Free radical Scavenging Effect” value in series [1] was 98.88. Also, the figures for the DSC onset time in series [2] and in series [3] were 20.48 min and 10.01 min, respectively.

The values are drawn from patent US7396554B2, “Antioxidant sesame extract” (Council of Scientific & Industrial Research, priority 2002, dated 2008).
